Columns and labels:
physchem [1] = conditions: octanol/water, pH 7.4
[2] = hexadecane/water, pH 7.4
in vivo = conditions: Wistar, rat
physchem [3] = conditions: octanol/water
[4] = hexadecane/water
Description: Hexadecane-water partition coefficient, log P of the compound

[5] = octanol/water
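For Kp in this document: drug concentration in brain divided by that in blood, measured in Wistar rats.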

| SMILES | logD (physchem [1]) | logD [2] | also measured |
| --- | --- | --- | --- |
| Clc1ccccn1 [2-CHLOROPYRIDINE] | 1.23 | 0.52 | – |
| Cc1nc2n(c(=O)c1CCN1CCC(c3noc4cc(F)ccc34)CC1)CCCC2 [RISPERIDONE] | – | – | Kp (in vivo; brain): 0.955 |
| CN1CCN2c3ncccc3Cc3ccccc3C2C1 (configuration not stated) [MIRTAZAPINE] | – | – | Kp (in vivo; brain): 3.39 |
| CCn1c(C)cc(=O)c2ccc(Cl)cc21 | 1.8 | -1.4 | – |
| c1cnc2cccnc2c1 | 0.79 | -0.49 | – |
| COc1ccc(CN(CCN(C)C)c2ccccn2)cc1 [PYRILAMINE] | – | – | Kp (in vivo; brain): 3.09 |
| CCN1C(=O)Cc2ccccc21 | 1.69 | 0.49 | – |
| CN1C(=O)c2ccccc2C1=O | 1.32 | -0.15 | – |
| c1ccc2nnccc2c1 [CINNOLINE] | – | – | logP (physchem [3]): 1.01 |
| c1ccc2ncccc2c1 [QUINOLINE] | 1.99 | – | – |
| COc1ccccc1 [ANISOLE] | 2.15 | 1.9 | logP [4]: 2.13 |
| COc1ccc(C#N)cc1 | 1.75 | 0.92 | – |
| CN(C)C(=O)N(C)c1ccccc1 | 1.6 | 0.16 | – |
| CN1Cc2c(-c3noc(C(C)(C)O)n3)ncn2-c2cccc(Cl)c2C1=O | – | – | Kp (in vivo; brain / blood): 0.0457 |
| Clc1ccc(Cn2ccnn2)cc1 | – | – | logP (physchem [3]): 1.78 |
| Cn1c(=O)ccc2ccccc21 | 1.52 | -0.15 | – |
| [O-][S+](c1ccccc1)c1ccccc1 | 2.1 | 0.66 | – |
| CN(C)C(=O)Cc1ccc(Br)cc1 | 1.83 | 0.07 | – |
| CNCCCN1c2ccccc2CCc2ccccc21 [DESIPRAMINE] | – | – | Kp (in vivo; brain): 10 |
| [O-][S+](CC1CCCCC1)c1ccccc1 (configuration not stated) | 2.81 | 1.23 | – |

| SMILES | logD (physchem [1]) | logD [2] | also measured |
| --- | --- | --- | --- |
| Cc1cccc2c1Oc1ccccc1[C@@]1(O)CCNC[C@@H]21 | – | – | Kp (in vivo; brain): 3.31 |
| CN1C(=O)Cc2ccccc21 | 1.25 | 0 | – |
| N#Cc1ccccc1 [BENZONITRILE] | 1.56 | 0.91 | logP [4]: 0.99 |
| c1ccc2[nH]ccc2c1 [INDOLE] | 2.24 | 0.66 | – |
| O=c1ccn(Cc2ccc(-c3ccccc3)cc2)cc1 | 2.47 | -1.76 | – |
| c1ccc2nccnc2c1 [QUINOXALINE] | 1.31 | 0.47 | – |
| Cc1ccc2occc(=O)c2c1 | 1.9 | 0.56 | – |
| O=C1CCCN1CCCCN1CCN(c2cc(C(F)(F)F)ccn2)CC1 | – | – | Kp (in vivo; brain): 1.45 |
| c1ccc(Cn2ccnc2)cc1 [BENZYLIMIDAZOLE] | 1.55 | -0.83 | – |
| O=[N+]([O-])c1ccccc1 [NITROBENZENE] | 1.83 | – | – |
| c1ccc2cnccc2c1 [ISOQUINOLINE] | 2.09 | 0.98 | – |
| CN(C)CCC=C1c2ccccc2CCc2ccccc21 [AMITRIPTYLINE] | – | – | Kp (in vivo; brain / blood): 9.55 |
| Cn1cnc2ccccc21 | 1.34 | -0.89 | – |
| Cc1nc2n(c(=O)c1CCN1CCC(c3noc4cc(F)ccc34)CC1)CCCC2O (configuration not stated) [PALIPERIDONE] | – | – | Kp (in vivo; brain / blood): 0.214 |
| CC(=O)N(C)c1ccccc1 | 1 | -0.54 | – |
| O=C1CCCN1Cc1ccccc1 | 1.32 | -0.6 | – |
| c1ccc2nocc2c1 [BENZO[C]ISOXAZOLE] | 1.49 | 0.75 | – |
| Clc1ccc2c(c1)[C@H]1CNC[C@@H]1c1ccccc1O2 | – | – | Kp (in vivo; brain / blood): 2.45 |
| CN(C)CCCN1c2ccccc2CCc2ccccc21 [IMIPRAMINE] | – | – | Kp (in vivo; brain / blood): 11.2 |
| O=S(=O)(c1ccccc1)c1ccccc1 [(PHENYLSULFONYL)BENZENE] | 2.41 | 0.75 | – |

| SMILES | logD (physchem [1]) | logD [2] | also measured |
| --- | --- | --- | --- |
| CN1Cc2ccccc2C1=O | 0.87 | -1.07 | – |
| c1ccc2c(c1)COC2 | 1.74 | 1.36 | – |
| O=C1Cc2ccccc2CO1 | 1.02 | -0.29 | – |
| Cc1ccc2c(c1)c(C)cc(C)[n+]2[O-] | 1.71 | -0.57 | – |
| CC(C)c1nc(-c2ncn3c2CN(C)C(=O)c2c(Cl)cccc2-3)no1 | – | – | Kp (in vivo; brain / blood): 0.501 |
| Cn1c(=O)n(C)c2ccccc21 | 1.33 | 0.53 | – |
| O=c1ccccn1Cc1ccc(C(F)(F)F)cc1 | 2.47 | 0.18 | – |
| Cc1cccc2c1Oc1ccccc1[C@@]1(O)CCN(C)C[C@@H]21 | – | – | Kp (in vivo; brain): 6.61 |
| O=c1ccccn1Cc1cccc(Cl)c1 | 2.09 | -0.03 | – |
| Clc1ccc2ncncc2c1 | – | – | logP (physchem [3]): 1.78 |
| Cc1cnccn1 | – | – | logP (physchem [3]): 0.23 |
| CN(C)C(=O)c1ccccc1 | 0.71 | -0.98 | – |
| N#Cc1ccncc1 [ISONICOTINONITRILE] | – | – | logP [5]: 0.46 |
| O=c1ccccn1Cc1ccccc1 | 1.37 | -0.72 | – |
| CC(=O)c1ccccc1 [ACETOPHENONE] | 1.61 | 0.96 | logP [4]: 1.12 |
| CN1C[C@@H]2c3ccccc3Oc3ccc(Cl)cc3[C@H]2C1 [ASENAPINE] | – | – | Kp (in vivo; brain): 10.7 |
| CN1Cc2c(-c3noc(C(C)(O)CO)n3)ncn2-c2cccc(Cl)c2C1=O (configuration not stated) | – | – | Kp (in vivo; brain): 0.0151 |
| Clc1ccc2cc[nH]c2c1 | 3.22 | 1.36 | – |
